pIC50, pKd, pKi: −log10 of the molar value. Each block holds one compound with its values, some of them ahead of it. Non-standard residues stand in square brackets, D forms with d. Residues, ends and D or L forms follow the SMILES beside them. *: point of attachment. Lys(Me,2-norbornyl) = CN(CCCC[C@H](N)C(=O)O)C1CC2CCC1C2; Benzoyl(4-tBu) = CC(C)(C)c1ccc(C(=O)*)cc1; CH2Cl = ClC*
Legend:
[1] = target: Protein arginine N-methyltransferase 6 (Homo sapiens, UniProt Q96LA8); test: Affinity Biochemical interaction: (enzymatic assay (inhibition of methyl transfer from radiolabelled substrate [3H]SAM to peptide)) EUB0002245aCl PRMT6; format: functional; design: mode of action Inhibitor, recommended concentration 1 uM
Chain of Protein arginine N-methyltransferase 6 (Q96LA8 whole entry): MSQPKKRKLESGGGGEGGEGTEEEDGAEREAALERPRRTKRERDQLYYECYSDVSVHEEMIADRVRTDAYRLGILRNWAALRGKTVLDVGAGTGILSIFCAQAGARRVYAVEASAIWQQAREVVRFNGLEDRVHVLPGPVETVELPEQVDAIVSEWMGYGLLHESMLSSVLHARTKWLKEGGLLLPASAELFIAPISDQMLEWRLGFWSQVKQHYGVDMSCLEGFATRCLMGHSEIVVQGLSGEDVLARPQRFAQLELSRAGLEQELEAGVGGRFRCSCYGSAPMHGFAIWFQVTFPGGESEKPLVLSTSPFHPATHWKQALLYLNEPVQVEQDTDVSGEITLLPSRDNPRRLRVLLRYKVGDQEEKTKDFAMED

[2] = target: Protein arginine N-methyltransferase 8 (Homo sapiens, UniProt Q9NR22); test: Affinity Biochemical interaction: (enzymatic assay (inhibition of methyl transfer from radiolabelled substrate [3H]SAM to peptide)) EUB0002245aCl PRMT8; format: functional; design: mode of action Inhibitor, recommended concentration 1 uM
Chain of Protein arginine N-methyltransferase 8 (Q9NR22 whole entry): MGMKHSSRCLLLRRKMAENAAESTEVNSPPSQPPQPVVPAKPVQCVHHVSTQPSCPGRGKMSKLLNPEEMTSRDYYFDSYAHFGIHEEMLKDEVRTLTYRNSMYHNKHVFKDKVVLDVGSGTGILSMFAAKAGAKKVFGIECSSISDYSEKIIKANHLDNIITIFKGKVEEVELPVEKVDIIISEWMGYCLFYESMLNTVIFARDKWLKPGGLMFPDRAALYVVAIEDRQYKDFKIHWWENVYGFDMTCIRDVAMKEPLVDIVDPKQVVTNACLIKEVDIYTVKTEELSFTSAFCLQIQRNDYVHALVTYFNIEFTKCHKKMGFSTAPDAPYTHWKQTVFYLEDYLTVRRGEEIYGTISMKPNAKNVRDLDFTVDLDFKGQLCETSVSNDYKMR

[3] = target: Histone-arginine methyltransferase CARM1 (Homo sapiens, UniProt Q86X55); test: Affinity Biochemical interaction: (enzymatic assay (inhibition of methyl transfer from radiolabelled substrate [3H]SAM to peptide)) EUB0002245aCl CARM1; format: functional; design: mode of action Inhibitor, recommended concentration 1 uM
Chain of Histone-arginine methyltransferase CARM1 (Q86X55 whole entry): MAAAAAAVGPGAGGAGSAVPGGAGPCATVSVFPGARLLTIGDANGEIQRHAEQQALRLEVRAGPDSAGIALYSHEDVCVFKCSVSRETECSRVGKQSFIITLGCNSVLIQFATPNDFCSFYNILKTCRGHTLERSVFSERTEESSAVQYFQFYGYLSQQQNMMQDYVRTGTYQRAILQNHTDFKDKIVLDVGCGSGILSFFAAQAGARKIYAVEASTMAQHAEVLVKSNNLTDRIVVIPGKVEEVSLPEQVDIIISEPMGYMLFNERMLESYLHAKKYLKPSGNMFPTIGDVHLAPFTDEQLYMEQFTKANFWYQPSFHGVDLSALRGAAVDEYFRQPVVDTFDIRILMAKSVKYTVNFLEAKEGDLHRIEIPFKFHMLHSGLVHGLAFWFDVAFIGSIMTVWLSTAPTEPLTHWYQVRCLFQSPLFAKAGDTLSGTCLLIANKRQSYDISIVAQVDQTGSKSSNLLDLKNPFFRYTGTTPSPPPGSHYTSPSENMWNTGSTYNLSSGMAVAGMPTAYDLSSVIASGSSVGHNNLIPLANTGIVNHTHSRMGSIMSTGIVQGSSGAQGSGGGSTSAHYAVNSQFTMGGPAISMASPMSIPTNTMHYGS

Caspase-3 [4] = target: T1, Caspase-3 (Homo sapiens, UniProt P42574); test: Affinity Biochemical interaction: (enzymatic assay (fluorogenic substrate cleavage)) EUB0002175aAD CASP3; format: functional; design: mode of action Inhibitor, recommended concentration 1 uM
T1 sequence (P42574 whole entry): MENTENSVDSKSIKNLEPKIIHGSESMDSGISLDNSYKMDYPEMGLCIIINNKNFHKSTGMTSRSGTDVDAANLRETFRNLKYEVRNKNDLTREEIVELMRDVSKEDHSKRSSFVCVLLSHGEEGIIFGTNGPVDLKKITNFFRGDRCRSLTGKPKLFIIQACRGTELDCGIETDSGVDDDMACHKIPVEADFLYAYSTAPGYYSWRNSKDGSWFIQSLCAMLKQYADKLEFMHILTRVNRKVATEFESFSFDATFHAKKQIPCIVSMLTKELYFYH

[5] = target: T2, Bromodomain-containing protein 3 (Homo sapiens, UniProt Q15059); test: (§1) Affinity Biochemical interaction: (BROMOscan assay) EUB0002282a BRD3; design: mode of action Inhibitor, recommended concentration 1 uM
T2 sequence (Q15059 whole entry): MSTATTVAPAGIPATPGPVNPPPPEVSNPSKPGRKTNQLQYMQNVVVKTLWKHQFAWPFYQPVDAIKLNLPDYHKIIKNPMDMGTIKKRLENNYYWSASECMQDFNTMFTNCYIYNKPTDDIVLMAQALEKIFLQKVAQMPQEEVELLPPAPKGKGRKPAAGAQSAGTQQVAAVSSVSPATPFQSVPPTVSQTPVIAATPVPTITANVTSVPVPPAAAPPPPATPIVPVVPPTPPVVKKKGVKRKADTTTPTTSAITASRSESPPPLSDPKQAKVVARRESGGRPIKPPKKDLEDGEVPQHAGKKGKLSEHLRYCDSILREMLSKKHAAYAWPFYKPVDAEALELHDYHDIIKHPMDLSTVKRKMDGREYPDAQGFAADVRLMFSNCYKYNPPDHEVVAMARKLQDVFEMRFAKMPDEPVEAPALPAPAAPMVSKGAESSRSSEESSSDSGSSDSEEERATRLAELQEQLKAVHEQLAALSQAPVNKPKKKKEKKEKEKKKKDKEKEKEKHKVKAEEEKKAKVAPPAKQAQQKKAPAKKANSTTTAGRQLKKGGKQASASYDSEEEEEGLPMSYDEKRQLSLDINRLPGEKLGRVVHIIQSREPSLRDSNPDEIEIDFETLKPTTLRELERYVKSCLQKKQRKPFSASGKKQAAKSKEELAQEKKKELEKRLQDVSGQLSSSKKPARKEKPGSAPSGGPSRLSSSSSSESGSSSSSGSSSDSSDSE

[6] = target: Bromodomain testis-specific protein (Homo sapiens, UniProt Q58F21); test: Affinity Biochemical interaction: (BROMOscan assay) EUB0002282a BRDT; design: mode of action Inhibitor, recommended concentration 1 uM
[7] = target: T3, Bromodomain-containing protein 2 (Homo sapiens, UniProt P25440); test: (§2) Affinity Biochemical interaction: (BROMOscan assay) EUB0002282a BRD2; design: mode of action Inhibitor, recommended concentration 1 uM
T3 sequence (P25440 whole entry): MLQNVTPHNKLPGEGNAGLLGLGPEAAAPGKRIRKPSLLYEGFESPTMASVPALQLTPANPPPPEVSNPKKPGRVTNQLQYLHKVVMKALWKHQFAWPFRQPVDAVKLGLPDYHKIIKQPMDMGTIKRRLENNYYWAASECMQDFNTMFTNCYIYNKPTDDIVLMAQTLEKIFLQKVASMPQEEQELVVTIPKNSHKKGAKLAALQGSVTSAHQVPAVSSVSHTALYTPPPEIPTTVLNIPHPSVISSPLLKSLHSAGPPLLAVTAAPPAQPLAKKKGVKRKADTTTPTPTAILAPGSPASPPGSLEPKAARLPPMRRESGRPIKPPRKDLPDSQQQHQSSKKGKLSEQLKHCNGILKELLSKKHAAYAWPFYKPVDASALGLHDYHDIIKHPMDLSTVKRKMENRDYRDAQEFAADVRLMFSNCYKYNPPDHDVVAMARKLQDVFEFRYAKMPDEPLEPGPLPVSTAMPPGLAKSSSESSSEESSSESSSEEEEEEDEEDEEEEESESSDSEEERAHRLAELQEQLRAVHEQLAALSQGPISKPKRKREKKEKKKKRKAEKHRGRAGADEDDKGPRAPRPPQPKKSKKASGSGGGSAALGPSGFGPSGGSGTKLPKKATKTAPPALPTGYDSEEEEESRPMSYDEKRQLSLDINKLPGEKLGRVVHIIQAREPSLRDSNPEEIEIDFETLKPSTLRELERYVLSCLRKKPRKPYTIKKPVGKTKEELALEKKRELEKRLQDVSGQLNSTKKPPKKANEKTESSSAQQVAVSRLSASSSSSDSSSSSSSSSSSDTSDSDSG

[8] = target: T2, Bromodomain-containing protein 3; test: as §1; design: mode of action Inhibitor, recommended concentration 1 uM; remark: listed apart in the source
[9] = target: T4, Bromodomain-containing protein 4 (Homo sapiens, UniProt O60885); test: (§3) Affinity Biochemical interaction: (AlphaLISA) EUB0002282a BRD4; format: functional; design: mode of action Inhibitor, recommended concentration 1 uM
[10] = target: T3, Bromodomain-containing protein 2; test: as §2; design: mode of action Inhibitor, recommended concentration 1 uM; remark: listed apart in the source
[11] = target: T4, Bromodomain-containing protein 4; test: as §3; format: functional; design: mode of action Inhibitor, recommended concentration 1 uM; remark: listed apart in the source
[12] = target: Protein arginine N-methyltransferase 5 (Homo sapiens, UniProt O14744); test: Affinity Biochemical interaction: (SPR) EUB0002223a PRMT5; design: mode of action Inhibitor, recommended concentration 1 uM
[13] = target: Protein arginine N-methyltransferase 7 (Homo sapiens, UniProt Q9NVM4); test: Affinity Biochemical interaction: (SPR) EUB0002223a PRMT7; design: mode of action Inhibitor, recommended concentration 1 uM
Chain of Protein arginine N-methyltransferase 7 (Q9NVM4 whole entry): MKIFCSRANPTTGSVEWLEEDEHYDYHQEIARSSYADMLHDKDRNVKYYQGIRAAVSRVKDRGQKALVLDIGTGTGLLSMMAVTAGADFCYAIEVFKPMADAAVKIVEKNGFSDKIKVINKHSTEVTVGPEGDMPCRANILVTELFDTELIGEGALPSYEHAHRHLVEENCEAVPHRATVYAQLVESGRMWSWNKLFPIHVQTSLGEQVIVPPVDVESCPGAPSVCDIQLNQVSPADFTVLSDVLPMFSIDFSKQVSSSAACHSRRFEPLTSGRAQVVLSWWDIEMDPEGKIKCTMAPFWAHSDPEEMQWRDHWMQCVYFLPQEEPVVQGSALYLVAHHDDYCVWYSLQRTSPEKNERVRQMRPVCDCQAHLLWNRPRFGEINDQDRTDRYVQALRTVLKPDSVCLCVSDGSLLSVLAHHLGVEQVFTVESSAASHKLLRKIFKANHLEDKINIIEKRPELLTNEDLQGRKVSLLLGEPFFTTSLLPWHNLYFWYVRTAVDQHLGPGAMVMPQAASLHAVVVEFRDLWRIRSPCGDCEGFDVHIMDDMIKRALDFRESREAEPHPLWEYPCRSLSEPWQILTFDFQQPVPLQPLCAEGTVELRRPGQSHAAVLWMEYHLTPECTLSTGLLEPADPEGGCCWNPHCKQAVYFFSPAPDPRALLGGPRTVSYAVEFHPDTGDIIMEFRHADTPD

Caspase-8 [14] = target: T5, Caspase-8 (Homo sapiens, UniProt Q14790); test: Affinity Biochemical interaction: (enzymatic assay (fluorogenic substrate cleavage)) EUB0002173aAD CASP8; format: functional; design: mode of action Inhibitor, recommended concentration 1 uM
T5 sequence (Q14790 217-374 limits assumed): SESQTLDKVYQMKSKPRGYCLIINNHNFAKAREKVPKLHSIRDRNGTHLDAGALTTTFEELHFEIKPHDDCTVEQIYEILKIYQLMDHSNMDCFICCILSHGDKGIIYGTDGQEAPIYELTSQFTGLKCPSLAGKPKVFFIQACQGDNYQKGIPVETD
T5 sequence (Q14790 385-479 limits assumed): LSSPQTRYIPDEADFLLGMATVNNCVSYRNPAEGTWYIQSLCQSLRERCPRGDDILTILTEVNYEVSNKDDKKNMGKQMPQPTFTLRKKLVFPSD

Caspase-7 [15] = target: T6, Caspase-7 (Homo sapiens, UniProt P55210); test: Affinity Biochemical interaction: (enzymatic assay (fluorogenic substrate cleavage)) EUB0002173aAD CASP7; format: functional; design: mode of action Inhibitor, recommended concentration 1 uM
T6 sequence (P55210 24-198 limits assumed): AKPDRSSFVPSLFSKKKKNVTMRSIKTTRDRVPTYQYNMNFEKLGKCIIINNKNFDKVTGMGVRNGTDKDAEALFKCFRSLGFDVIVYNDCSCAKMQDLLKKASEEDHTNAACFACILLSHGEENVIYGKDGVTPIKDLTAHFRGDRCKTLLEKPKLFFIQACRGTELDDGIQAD
T6 sequence (P55210 207-303 limits assumed): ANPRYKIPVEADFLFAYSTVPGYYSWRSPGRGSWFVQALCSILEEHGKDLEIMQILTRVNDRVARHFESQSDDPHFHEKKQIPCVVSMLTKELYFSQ

Caspase-10 = Caspase-10 (Homo sapiens, UniProt Q92851); test: Affinity Biochemical interaction: (enzymatic assay (fluorogenic substrate cleavage)) EUB0002173aAD CASP10; format: functional; design: mode of action Inhibitor, recommended concentration 1 uM
Caspase-4 = Caspase-4 (Homo sapiens, UniProt P49662); test: Affinity Biochemical interaction: (enzymatic assay (fluorogenic substrate cleavage)) EUB0002201a CASP4; format: functional; design: mode of action Inhibitor, recommended concentration 1 uM
Chain of Caspase-4 (P49662 81-270 limits assumed): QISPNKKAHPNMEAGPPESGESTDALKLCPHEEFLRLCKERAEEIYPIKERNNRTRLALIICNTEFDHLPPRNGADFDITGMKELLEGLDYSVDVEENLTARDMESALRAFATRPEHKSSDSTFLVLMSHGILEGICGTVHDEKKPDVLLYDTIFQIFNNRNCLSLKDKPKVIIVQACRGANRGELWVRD
Chain of Caspase-4 (P49662 290-377 limits assumed): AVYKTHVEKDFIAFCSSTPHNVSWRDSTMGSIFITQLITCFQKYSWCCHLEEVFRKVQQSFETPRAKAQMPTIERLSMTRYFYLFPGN

Caspase-8 [16] = target: T5, Caspase-8; test: Affinity Biochemical interaction: (enzymatic assay (fluorogenic substrate cleavage)) EUB0002177aAD CASP8; format: functional; design: mode of action Inhibitor, recommended concentration 1 uM
[17] = Affinity Biochemical interaction: (inhibition of enzyme activity, competitive binding assay (fluorescent substrate cleavage)) EUB0002137aAD CAPN2
Caspase-8 [18] = target: T5, Caspase-8; test: Affinity Biochemical interaction: (enzymatic assay (fluorogenic substrate cleavage)) EUB0002198aAD CASP8; format: functional; design: mode of action Inhibitor, recommended concentration 1 uM
Caspase-1 = Caspase-1 (Homo sapiens, UniProt P29466); test: Affinity Biochemical interaction: (enzymatic assay (fluorogenic substrate cleavage)) EUB0002198aAD CASP1; format: functional; design: mode of action Inhibitor, recommended concentration 1 uM
Caspase-9 = Caspase-9 (Homo sapiens, UniProt P55211); test: Affinity Biochemical interaction: (peptide substrate detection probe bound to magnetic beads, detection of liberated fluorophores) EUB0002203aAD CASP9; format: functional; design: mode of action Inhibitor, recommended concentration 1 uM
Chain of Caspase-9 (P55211 1-315 limits assumed): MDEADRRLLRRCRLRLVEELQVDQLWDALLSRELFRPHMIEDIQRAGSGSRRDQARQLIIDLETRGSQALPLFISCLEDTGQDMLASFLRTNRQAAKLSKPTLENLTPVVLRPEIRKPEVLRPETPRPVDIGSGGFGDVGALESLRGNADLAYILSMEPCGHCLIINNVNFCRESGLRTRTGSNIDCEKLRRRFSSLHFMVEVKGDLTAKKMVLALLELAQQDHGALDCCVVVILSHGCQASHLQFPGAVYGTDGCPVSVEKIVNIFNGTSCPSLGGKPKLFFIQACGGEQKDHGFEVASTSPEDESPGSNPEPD
Chain of Caspase-9 (P55211 331-416 limits assumed): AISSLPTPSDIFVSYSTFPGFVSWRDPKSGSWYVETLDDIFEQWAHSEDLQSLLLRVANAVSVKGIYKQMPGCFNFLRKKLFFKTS

Caspase-2 = Caspase-2 (Homo sapiens, UniProt P42575); test: Affinity Biochemical interaction: (enzymatic assay (fluorogenic substrate cleavage)) EUB0002196a CASP2; format: functional; design: mode of action Inhibitor, recommended concentration 1 uM
Caspase-7 [19] = target: T6, Caspase-7; test: Affinity Biochemical interaction: (enzymatic assay (fluorogenic substrate cleavage)) EUB0002196a CASP7; format: functional; design: mode of action Inhibitor, recommended concentration 1 uM
Caspase-3 [20] = target: T1, Caspase-3; test: Affinity Biochemical interaction: (enzymatic assay (fluorogenic substrate cleavage)) EUB0002196a CASP3; format: functional; design: mode of action Inhibitor, recommended concentration 1 uM
[21] = target: T7, Chromobox protein homolog 7 (Homo sapiens, UniProt O95931); test: Affinity Biochemical interaction: (SPR) EUB0001090a CBX7; design: mode of action Inhibitor, recommended concentration 1 uM
T7 sequence (O95931 whole entry): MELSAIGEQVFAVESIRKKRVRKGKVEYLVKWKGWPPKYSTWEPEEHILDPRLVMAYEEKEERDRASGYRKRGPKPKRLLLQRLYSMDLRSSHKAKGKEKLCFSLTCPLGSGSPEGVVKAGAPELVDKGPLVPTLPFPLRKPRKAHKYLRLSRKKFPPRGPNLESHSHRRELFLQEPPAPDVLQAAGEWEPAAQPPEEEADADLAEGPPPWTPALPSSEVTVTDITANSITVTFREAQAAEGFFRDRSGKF

[22] = target: T7, Chromobox protein homolog 7; test: Affinity Biochemical interaction: (ITC) EUB0001090a CBX7; design: mode of action Inhibitor, recommended concentration 1 uM
[23] = target: T7, Chromobox protein homolog 7; test: Affinity Biochemical interaction: (AlphaScreen) EUB0001090a CBX7; format: functional; design: mode of action Inhibitor, recommended concentration 1 uM

- pIC50 [1]: 8.33
- pKi [1]: 8.62
- pIC50 [2]: 8.41
- pKi [2]: 8.70
- pIC50 [3]: 7.42
- pKi [3]: 7.72
Compound: CCOCC1(COCC)CCC(c2n[nH]cc2CN(C)CCNC)CC1

- pKi (Caspase-3 [4]): 7.88
Compound: CSCC[C@H](NC(=O)[C@H](CC(=O)O)NC(C)=O)C(=O)N[C@@H](CCC(N)=O)C(=O)N[C@H](C=O)CC(=O)O (Ac-DMQD-aldehyde)

- pKd [5]: 8.64
- pKd [6]: 8.51
- pKd [7]: 8.28
- pKd [8]: 8.54
- pKd [9]: 8.12
- pKd [10]: 8.49
- pKd [11]: 8.19
Compound: Cc1cc(-c2ccc3nc(C4CCOCC4)n(CCOC(F)(F)F)c3c2)cn(C)c1=O

- pIC50 [12]: 4.60
- pIC50 [13]: 4.43
Compound: CCNC(=O)NCCSC[C@H]1O[C@@H](n2cnc3c(N)ncnc32)[C@H](O)[C@@H]1O

- pKi (Caspase-8 [14]): 9.04
- pKi (Caspase-7 [15]): 8.80
- pKi (Caspase-10): 7.92
Compound: CC(=O)N[C@@H](CC(=O)O)C(=O)N[C@@H](CCC(=O)O)C(=O)N[C@H](C(=O)N[C@H](C=O)CC(=O)O)C(C)C

- pIC50 (Caspase-4): 7.08
Compound: CC(=O)N[C@@H](CC(C)C)C(=O)N[C@@H](CCC(=O)O)C(=O)N[C@H](C(=O)N[C@H](C=O)CC(=O)O)C(C)C (Ac-LEVD-aldehyde)

- pIC50 (Caspase-8 [16]): 8.30
Compound: CC[C@H](C)[C@H](NC(C)=O)C(=O)N[C@@H](CCC(=O)O)C(=O)N[C@H](C(=O)N[C@H](C=O)CC(=O)O)[C@@H](C)O (Ac-IETD-aldehyde)

- pKi [17]: 7.39
Compound: CCC(NC(=O)C(CC(C)C)NC(=O)OCc1ccccc1)C(=O)C(=O)NCCCN1CCOCC1 (stereo unspecified)

- pIC50 (Caspase-8 [18]): 8.42
- pIC50 (Caspase-1): 7.82
Compound: CC(=O)N[C@@H](CC(C)C)C(=O)N[C@@H](CCC(=O)O)C(=O)N[C@@H](Cc1cnc[nH]1)C(=O)N[C@H](C=O)CC(=O)O (Ac-LEHD-aldehyde)

- pIC50 (Caspase-9): 7.14
Compound: CC(=O)N[C@@H](CC(C)C)C(=O)N[C@@H](CCC(=O)O)C(=O)N[C@@H](Cc1cnc[nH]1)C(=O)N[C@@H](CC(=O)O)C(=O)CCl (Ac-LEHD-CH2Cl)

- pKi (Caspase-2): 8.46
- pKi (Caspase-7 [19]): 8.12
- pKi (Caspase-3 [20]): 9.00
Compound: CC(=O)N[C@H](C(=O)N[C@@H](CC(=O)O)C(=O)N[C@H](C(=O)N[C@@H](C)C(=O)N[C@H](C=O)CC(=O)O)C(C)C)C(C)C (Ac-VDVAD-aldehyde)

- pKd [21]: 7.27
- pKd [22]: 7.23
- pIC50 [23]: 7.70
Compound: COC(=O)[C@H](CO)NC(=O)[C@H](CCCCN(C)C1CC2CCC1C2)NC(=O)[C@H](CC(C)C)NC(=O)[C@H](C)NC(=O)[C@H](Cc1ccccc1)NC(=O)c1ccc(C(C)(C)C)cc1 (stereo partly specified) ({Benzoyl(4-tBu)}-FAL[Lys(Me,2-norbornyl)]S-OMe)

— ChEMBL document CHEMBL5723035, “Affinity Biochemical Literature for EUbOPEN Chemogenomic Library” (2024)
